Measured values published in article PMC9231089, “Sorafenib Chemosensitization by Caryophyllane Sesquiterpenes in Liver, Biliary, and Pancreatic Cancer Cells: The Role of STAT3/ABC Transporter Axis” (Pharmaceutics, 2022).
Marks after values point to notes of the source that are not given here.

How the values were obtained:
MRP1 [1] = assay: RT-qPCR gene expression in Bx-PC3 cells, MRP1; type: cell-based, human; conditions: substance in combination with sorafenib, given for MRP1 and MRP2 together
Excerpt: (§1) Suitable vehicle controls were also included.

[2] = design: method as in PMID 33081075; conditions: European Food Safety Authority; cited from earlier work
[3] = design: method as in PMID 30659321; conditions: previous in vivo study; cited from earlier work
MRP1/2 [4] = assay: ABC-mediated drug efflux assay, calcein-AM accumulation, Bx-PC3 cells; type: cell-based, human; conditions: 2 h pre-treatment, sesquiterpenes 10 μg/mL, MK571 1 μg/mL, vs control
Pgp [5] = assay: Immunofluorescence analysis in Bx-PC3 cells, Pgp; type: cell-based, human
Protocol: as §1
(§2) The analysis was performed according to previously published methods. Confluent cells were seeded in 24-well plates (2 × 10^4 cells/well), allowed to adhere overnight, then treated as described above. After treatment, cells were fixed in pure methanol and washed with 4% bovine serum albumin (BSA) and PBS + Tween 20 (PBS-T) for 1 h. […] The expression and localization of Pgp, MRP1, and MRP2 pumps into cells were analyzed by using a Cytation 1 Cell Imaging Multimode Reader (Biotech, USA).

MRP1/2 [6] = assay: ABC-mediated drug efflux assay, calcein-AM accumulation, Mz-ChA-1 cells; type: cell-based, human; conditions: 2 h pre-treatment, sesquiterpenes 10 μg/mL, vs control
MRP2 [7] = assay: Immunofluorescence analysis in Bx-PC3 cells, MRP2; type: cell-based, human
Protocol: as §1, §2

Mz-ChA-1 [8] = assay: Combination assay with sorafenib (MTT), Mz-ChA-1; type: cell-based, human;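 for increase of sorafenib cytotoxicity in combination: percent increase of sorafenib cell viability inhibition versus sorafenib alone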
Protocol: as §1
(§3) The type of interaction (synergistic, additive, or antagonistic) among sorafenib and test substances or positive controls was evaluated by measuring the reversal ratio value (RR), combination index (CI), and isobolographic analysis (IB), as previously described.

Pgp [9] = molecular target: T1, Pgp (Homo sapiens, UniProt P08183); assay: ABC-mediated drug efflux assay, rhodamine 123 accumulation, Bx-PC3 cells; conditions: 2 h pre-treatment, sesquiterpenes 10 μg/mL, verapamil 1 μg/mL, vs control
T1 sequence (P08183 whole entry): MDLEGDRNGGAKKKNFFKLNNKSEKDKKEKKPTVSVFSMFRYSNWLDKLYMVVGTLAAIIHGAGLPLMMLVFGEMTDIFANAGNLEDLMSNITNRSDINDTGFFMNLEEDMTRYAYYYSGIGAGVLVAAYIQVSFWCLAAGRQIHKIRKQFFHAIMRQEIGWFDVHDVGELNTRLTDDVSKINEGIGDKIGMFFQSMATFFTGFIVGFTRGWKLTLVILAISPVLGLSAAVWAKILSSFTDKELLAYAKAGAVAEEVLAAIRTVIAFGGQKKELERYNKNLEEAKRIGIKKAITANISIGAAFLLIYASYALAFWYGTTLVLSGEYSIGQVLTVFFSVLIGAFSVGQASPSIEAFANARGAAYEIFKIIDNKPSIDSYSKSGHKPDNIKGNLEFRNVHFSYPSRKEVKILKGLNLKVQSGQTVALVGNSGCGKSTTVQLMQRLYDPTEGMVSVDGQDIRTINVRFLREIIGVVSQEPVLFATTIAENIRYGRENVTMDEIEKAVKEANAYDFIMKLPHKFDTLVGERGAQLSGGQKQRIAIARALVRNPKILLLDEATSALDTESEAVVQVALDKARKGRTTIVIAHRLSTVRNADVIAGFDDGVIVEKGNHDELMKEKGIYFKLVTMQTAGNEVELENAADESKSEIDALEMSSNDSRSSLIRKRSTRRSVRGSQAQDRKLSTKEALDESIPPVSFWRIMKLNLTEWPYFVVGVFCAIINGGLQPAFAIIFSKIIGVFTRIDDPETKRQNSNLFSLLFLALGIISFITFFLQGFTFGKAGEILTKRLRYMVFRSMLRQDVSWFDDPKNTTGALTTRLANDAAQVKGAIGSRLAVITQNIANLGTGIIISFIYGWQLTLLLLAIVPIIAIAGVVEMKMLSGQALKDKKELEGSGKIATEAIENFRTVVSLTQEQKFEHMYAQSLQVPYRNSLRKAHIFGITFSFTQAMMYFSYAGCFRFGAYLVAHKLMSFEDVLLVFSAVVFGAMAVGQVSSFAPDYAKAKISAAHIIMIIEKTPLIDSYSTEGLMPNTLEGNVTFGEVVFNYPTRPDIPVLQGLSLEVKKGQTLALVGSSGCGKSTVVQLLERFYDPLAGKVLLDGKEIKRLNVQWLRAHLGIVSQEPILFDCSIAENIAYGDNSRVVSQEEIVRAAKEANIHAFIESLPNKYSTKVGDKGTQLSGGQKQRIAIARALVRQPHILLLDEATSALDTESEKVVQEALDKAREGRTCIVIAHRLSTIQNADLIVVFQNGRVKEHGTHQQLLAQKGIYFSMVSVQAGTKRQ
Protocol: (§4) The ability of β-caryophyllene and β-caryophyllene oxide to inhibit the activity of Pgp and MRP1/2 transporters was measured according to previously published methods with slight modifications. […] Fluorescence was measured at excitation and emission wavelengths of 485 nm and 535 nm for both probes, using a Cytation 1 Cell Imaging Multimode Reader (Biotech, Santa Clara, CA, USA). Results were normalized to viable cells and expressed as percentage of the negative control.

Bx-PC3 cells = assay: Wound healing assay (cell migration); type: cell-based, human
Protocol: To evaluate the effect of caryophyllane sesquiterpenes, both alone and in combination with sorafenib, on the cell migration rate, the wound healing assay was performed. Bx-PC3 cells were seeded in 24-well plate at a density of 2.5 × 10^5 cells/well. After 24 h, the wound was created by scratching the well bottom with a 100 μL pipette tip, then the cells were treated under the scheduled conditions and images were captured at 0, 4, and 72 h using a Cytation 1 Cell Imaging Multi-Mode Reader. […] Results were expressed as wound area percentage with respect to that of the same well at zero time. The positive controls were also included.

HepG2 [10] = assay: MTT cytotoxicity assay, substances alone, HepG2; type: cell-based, human; conditions: HepG2
Protocol: as §1
(§5) The effect of the treatments on cell viability was measured by the MTT assay as previously described. A higher than 30% reduction of cell viability was considered as a significant cytotoxic effect.

Bx-PC3 [11] = assay: Combination assay with sorafenib (MTT), Bx-PC3; type: cell-based, human;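 for increase of sorafenib cytotoxicity in combination: percent increase of sorafenib cell viability inhibition versus sorafenib alone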
Protocol: as §1, §3

Pgp [12] = molecular target: T1, Pgp; assay: ABC-mediated drug efflux assay, rhodamine 123 accumulation, Mz-ChA-1 cells; conditions: 2 h pre-treatment, sesquiterpenes 10 μg/mL, verapamil 1 μg/mL, vs control
Protocol: as §4

MDR1 = assay: RT-qPCR gene expression in Bx-PC3 cells, MDR1
Protocol: (§6) Confluent cells were treated with the test substances, both alone or in combination with the anticancer drug, for 4 h, then washed and incubated for a further 72 h (Figure 1), according to previously published protocols [20]. […] Suitable vehicle controls were also included.
(§7) The results of mRNA abundance for the targeted genes in each sample were normalized on the basis of GAPDH (Bio-Rad, Hercules, CA, USA) mRNA. Data are expressed as 2^−ΔCt, calculated using the CFX Manager software (Bio-Rad).

HepG2 [13] = assay: Combination assay with sorafenib (MTT), HepG2; type: cell-based, human; conditions: for increase of sorafenib cytotoxicity in combination: verapamil/MK571 1 µg/mL or sesquiterpenes 10 µg/mL;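 for increase of sorafenib cytotoxicity in combination: percent increase of sorafenib cell viability inhibition versus sorafenib alone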
Protocol: as §1, §3

MRP1 [14] = assay: Immunofluorescence analysis in Bx-PC3 cells, MRP1; type: cell-based, human; conditions: substance 10 µg/mL in combination with sorafenib 10 µg/mL
Protocol: as §1, §2

phospho(Tyr705)-STAT3 = assay: Western blotting of STAT3 phosphorylation in Bx-PC3 cells; type: cell-based, human
Protocol: as §1
Confluent cells were seeded in 6-well plates (5 × 10^5 cells/well), treated as described above, then harvested by centrifugation and washed in PBS. After lysis with a suitable buffer, the Western blotting analysis was carried out, according to previously published methods. […] The levels of phospho(Tyr705)-STAT3 were normalized against total STAT3 ones.

[15] = system: noncancerous H69 cholangiocytes; assay: Combination assay with sorafenib (MTT), tolerability in H69; type: cell-based, human; conditions: sesquiterpene 10 μg/mL combined with sorafenib (protective effect at sorafenib 10 μg/mL)
Protocol: as §1, §3

MRP1/2 [16] = assay: ABC-mediated drug efflux assay, calcein-AM accumulation, HepG2 cells; type: cell-based, human; conditions: 2 h pre-treatment, sesquiterpenes 10 μg/mL, vs control
Mz-ChA-1 [17] = assay: MTT cytotoxicity assay, substances alone, Mz-ChA-1; type: cell-based, human; conditions: Mz-ChA-1
Protocol: as §1, §5

MRP2 [18] = assay: RT-qPCR gene expression in Bx-PC3 cells, MRP2; conditions: substance in combination with sorafenib, given for MRP1 and MRP2 together
Protocol: as §6, §7

Bx-PC3 [19] = assay: MTT cytotoxicity assay, substances alone, Bx-PC3; type: cell-based, human
Protocol: as §1, §5

Pgp [20] = molecular target: T1, Pgp; assay: ABC-mediated drug efflux assay, rhodamine 123 accumulation, HepG2 cells; conditions: 2 h pre-treatment, sesquiterpenes 10 μg/mL, verapamil 1 μg/mL, vs control
Protocol: as §4

[21] = system: noncancerous H69 cholangiocytes; assay: MTT cytotoxicity assay (tolerability), substances alone, H69; type: cell-based, human; conditions: H69 noncancerous cholangiocytes; substance alone; 4 h exposure + 72 h recovery
Protocol: as §1, §5

[22] = substance in combination with sorafenib 10 μg/mL
[23] = substance alone, 4 h exposure + 72 h recovery

## C=C1CC[C@H]2O[C@]2(C)CC[C@@H]2[C@@H]1CC2(C)C [β-Caryophyllene oxide, β-caryophyllene oxide]
MRP1 [1]
  reduction of MRP1 gene expression: 3 fold
[2]
  considered safe up to (approved as flavoring): ≤ 109 mg/kg/die
[3]
  safety in vivo up to: ≤ 100 mg/kg
MRP1/2 [4]
  increase of calcein-AM accumulation: ~3.0 fold
Pgp [5]; substance alone, sorafenib and sesquiterpenes 10 µg/mL, verapamil 1 µg/mL
  effect on Pgp expression (immunofluorescence): did not affect
Pgp [5]; [22]
  reduction of Pgp expression compared to control: ~1.8 fold
MRP1/2 [6]
  increase of calcein-AM accumulation: ~1.4 fold
MRP2 [7]; substance 10 µg/mL in combination with sorafenib 10 µg/mL
  reduction of MRP2 expression with respect to sorafenib: 1.6 fold
MRP2 [7]; substance alone, 10 µg/mL
  increase of MRP2 expression (immunofluorescence): 1.2 fold
Mz-ChA-1 [8]
  reduction of sorafenib IC50 in the presence of the substance: ~1.5 fold
Mz-ChA-1 [8]; CI lower than 1 = synergistic
  combination index (CI) with sorafenib: 0.76
Mz-ChA-1 [8]; sorafenib 10 µg/mL, verapamil/MK571 1 µg/mL or sesquiterpenes 10 µg/mL
  increase of sorafenib cytotoxicity in combination: 14%
Mz-ChA-1 [8]; sorafenib 50 µg/mL, sesquiterpenes 10 µg/mL
  increase of sorafenib cytotoxicity in combination: 13%
Pgp [9]
  increase of rhodamine 123 accumulation: approximately 2.7 fold
Bx-PC3 cells; substance alone, sesquiterpenes 10 µg/mL, verapamil/MK571 1 µg/mL
  wound area / cell migration after 72 h: blocked cell migration
Bx-PC3 cells; substance in combination with sorafenib 10 µg/mL, reference and time not stated
  increase of wound area: ~5 fold
HepG2 [10]
  IC50 higher than that of sorafenib: 1.7 fold
HepG2 [10]; substance alone, 4 h exposure + 72 h recovery, CL confidence limits
  IC50 (CL): 78.7 (76.8–80.5) *** µg/mL
Bx-PC3 [11]
  reduction of sorafenib IC50 in the presence of the substance: 9 fold
Bx-PC3 [11]; CI lower than 1 = synergistic
  combination index (CI) with sorafenib: 0.26
Bx-PC3 [11]; sesquiterpenes 10 µg/mL, sorafenib concentration not stated (Figure 3F)
  increase of sorafenib cytotoxicity in combination: 64%
Pgp [12]
  increase of rhodamine 123 accumulation: ~1.2 fold
MDR1; [23]
  increase of MDR1 gene expression with respect to control: 4.7 fold
MDR1; substance in combination with sorafenib
  downregulation of MDR1 gene with respect to sorafenib alone: 1.3 fold
HepG2 [13]
  reduction of sorafenib IC50 in the presence of the substance: ~6 fold
HepG2 [13]; CI lower than 1 = synergistic
  combination index (CI) with sorafenib: 0.29
HepG2 [13]; sorafenib 1 µg/mL
  increase of sorafenib cytotoxicity in combination: 20%
HepG2 [13]; sorafenib 10 µg/mL
  increase of sorafenib cytotoxicity in combination: ~44%
MRP1 [14]
  reduction of MRP1 expression with respect to sorafenib: 1.5 fold
phospho(Tyr705)-STAT3; substance alone, sorafenib and sesquiterpenes 10 μg/mL, verapamil/MK571 1 μg/mL, normalized to total STAT3
  increase of STAT3 phosphorylation at tyrosine 705: approximately 3 fold
phospho(Tyr705)-STAT3; [22]
  reduction of phospho(Tyr705)-STAT3 with respect to sorafenib: 2.6 fold
[15]
  effect on sorafenib cytotoxicity in noncancerous cells: null effect
MRP1/2 [16]
  increase of calcein-AM accumulation: approximately 1.3 fold
Mz-ChA-1 [17]
  IC50 higher than that of sorafenib: 1.2 fold
Mz-ChA-1 [17]; 50 µg/mL
  inhibition of cell viability: 16%
Mz-ChA-1 [17]; 250 µg/mL
  inhibition of cell viability: 90%
Mz-ChA-1 [17]; [23]
  IC50 (CL): 94.5 (90.1–99.1) ** µg/mL
MRP2 [18]
  reduction of MRP2 gene expression: 3 fold
Bx-PC3 [19]
  IC50 higher than that of sorafenib: 2.1 fold
Bx-PC3 [19]; 50 µg/mL
  inhibition of cell viability: 30%
Bx-PC3 [19]; 250 µg/mL
  inhibition of cell viability: 95%
Bx-PC3 [19]; [23]
  IC50 (CL): 65.3 (62.1–68.7) *** µg/mL
Pgp [20]
  increase of rhodamine 123 accumulation: ~2.5 fold
[21]
  IC50 (CL): 99.7 (93.1–106.9) *** µg/mL
